Source: patent publication US5312815A, “Fungicidal (+)-2-(2,4-difluorophenyl)-3-methyl-1-(1H-1,2,4-triazol-1-yl)3-(6-(1H-1, 2,4-triazol-1-yl)pyridazin-3-ylthio) butan-2-ol” (Roussel Morishita Co., Ltd., priority 1992, dated 1994)
≈ marks a conversion by molar mass, not a printed value.

Tests used:
[1] = Plasma level in dogs (HPLC); format: in vivo, beagles (dogs); details: dog; for concentration at 0.5 h / concentration at 1 h / concentration at 2 h / concentration at 3 h / concentration at 5 h / concentration at 8 h / concentration at 24 h: plasma
Experimental: Two beagles per group each received an oral preparation of an inclusion complex composed of the compound of Example 1 and maltosyl-β-cyclodextrin (G2 -β-CyD) at a dose of 10 mg of the compound of Example 1 per kg-b.w. or an intravenous injection of the inclusion complex at a dose of 5 mg of the compound of Example 1 per kg-b.w. For comparison, a suspension of the compound of Example 1 in 0.5% methyl cellulose (MC) was orally administered at a dose of 10 mg per kg-b.w. A-blood sample was taken at 0.5, 1, 2, 3, 5, 8, and 24 hours after administration. After deproteination, the concentration of the compound of formula (I) in the sample was determined by high performance liquid chromatography (HPLC).

Aspergillus fumigatus = test: In vitro antifungal activity, MIC on mycelium formation; format: cell-based; details: 37° C., 24 hours, Eagle's MEM with 10% fetal bovine serum
Experimental: (§1) Candida albicans (10^2 cells) or Aspergillus fumigatus (10^3 cells) was inoculated to 200 μl of an Eagle's minimum essential medium containing 10% fetal bovine serum and a test compound shown in Table 2 below at a dilution increasing by a factor of 2. The system was incubated at 37° C. for 24 hours in a 5 v/v% CO2 stream to obtain the minimum inhibitory concentration (MIC) on mycelium formation.

Candida albicans = test: as above; format: cell-based; details: 37° C., 24 hours, Eagle's MEM with 10% fetal bovine serum
Experimental: as §1

[2] = system: Aspergillus fumigatus Kawasaki strain; test: In vivo antifungal activity, Aspergillus fumigatus infected mice, oral; set-up: species or system mouse; details: 25 mg/kg p.o. twice a day, 4 days; for Mean Survival Days: 10 days observation; for Survival Number on Day 1 / Survival Number on Day 2 / Survival Number on Day 3 / Survival Number on Day 4 / Survival Number on Day 5 / Survival Number on Day 6 / Survival Number on Day 7 / Survival Number on Day 8 / Survival Number on Day 9 / Survival Number on Day 10: of 9 mice
Experimental: (§2) Asperoillus fumigatus Kawasaki strain having been cultured at 27° C. for 1 week was suspended in physiological saline, and the suspension (3×10^6 cells) was injected into the tail vein of a 4-week-old day male mouse (9 mice per group). Two days before the infection and on the day of the infection, 100 mg/kg of cyclophosphamide was intraperitoneally administered to each animal.
For comparison, compound (A) shown below which is described in EP 0421210A2, fluconazole (FCZ) and itraconazole (ITZ), were used as a comparative substance. Itraconazole was administered in a polyethylene glycol (400) solution. [drawing 4]

[3] = system: Candida albicans CAA-14 strain; test: In vivo antifungal activity, Candida albicans infected mice, i.v.; set-up: species or system ICR male mouse; details: 5 mg/kg i.v. twice a day, 2 days, Example 1 as G2-β-CyD complex, FCZ in saline; for Mean Survival Days: 10 days observation; for Survival Number on Day 1 / Survival Number on Day 2 / Survival Number on Day 3 / Survival Number on Day 4 / Survival Number on Day 5 / Survival Number on Day 6 / Survival Number on Day 7 / Survival Number on Day 8 / Survival Number on Day 9 / Survival Number on Day 10: of 9 mice
Experimental: Candida albicans CAA-14 strain having been cultured at 30° C. for 24 hours was suspended in physiological saline, and the cell suspension (5×10^6 cells) was injected into the tail vein of a 5-week-old ICR male mouse (9 mice per group). Two days before the infection and on the day of the infection, 100 mg/kg of cyclophosphamide was intraperitoneally administered to each animal.
(§3) For comparison, fluconazole was used as a comparative substance.

[4] = system: Aspergillus fumigatus Kawasaki strain; test: In vivo antifungal activity, Aspergillus fumigatus infected mice, i.v.; set-up: species or system mouse; details: 12.5 mg/kg i.v. twice a day, 4 days; for Mean Survival Days / Survival Number on Day 1 / Survival Number on Day 2 / Survival Number on Day 3: Example 1 as G2-β-CyD complex, FCZ in saline; for Mean Survival Days: 10 days observation
Experimental: as §2, with “Aspergillus fumigatus Kawasaki” for “Asperoillus fumigatus Kawasaki”, “and the cell suspension (3×10^6” for “and the suspension (3×10^6”
as §3

Acute toxicity in mice = format: in vivo, ICR male mouse; details: 1000 mg/kg oral, in 0.5% MC, 5 mice per group, 7 days
[5] = Toxicity in maintained administration in rats; format: in vivo, Crj:CD male rat; details: 100 or 300 mg/kg once a day, 2 weeks, in 0.5% MC
Experimental: A 6-week-old Crj:CD male rat (6 rats per group) was maintained on the compound of Example 1 or fluconazole suspended in 0.5% MC at a dose of 100 mg/kg or 300 mg/kg once a day for 2 consecutive weeks. Manifestations of toxicity were observed through observation of general signs, body weight measurement, biochemical examination of blood, organ weight measurements, and postmortem examinations.

[6] = iv, 5 mg/kg, G2-β-CyD inclusion complex
[7] = po, 10 mg/kg, G2-β-CyD inclusion complex
[8] = po, 10 mg/kg, suspension in 0.5% MC

CC(C)(Sc1ccc(-n2cncn2)nn1)C(O)(Cn1cncn1)c1ccc(F)cc1F (single isomer, unassigned; (+)) [Example 1, (+)-2-(2,4-difluorophenyl)-3-methyl-1-(1H-1,2,4-triazol-1-yl)-3-(6-(1H-1,2,4-triazol-1-yl)pyridazin-3-ylthio)butan-2-ol]
absorption from the gastrointestinal tract ([1]; p.o., inclusion complex with cyclodextrin derivative vs MC suspension): markedly increased absorption from the gastrointestinal tract | concentration at 0.5 h [1, 6]: 4100 ng/mL | concentration at 1 h [1, 6]: 3400 ng/mL | concentration at 2 h [1, 6]: 2800 ng/mL | concentration at 3 h [1, 6]: 2000 ng/mL | concentration at 5 h [1, 6]: 1700 ng/mL | concentration at 8 h [1, 6]: 1300 ng/mL | concentration at 24 h [1, 6]: 300 ng/mL | concentration at 0.5 h [1, 7]: 2500 ng/mL | concentration at 1 h [1, 7]: 2800 ng/mL | concentration at 2 h [1, 7]: 2900 ng/mL | concentration at 3 h [1, 7]: 2600 ng/mL | concentration at 5 h [1, 7]: 2500 ng/mL | concentration at 8 h [1, 7]: 2200 ng/mL | concentration at 24 h [1, 7]: 700 ng/mL | concentration at 0.5 h [1, 8]: 300 ng/mL | concentration at 1 h [1, 8]: 300 ng/mL | concentration at 2 h [1, 8]: 300 ng/mL | concentration at 3 h [1, 8]: 200 ng/mL | concentration at 5 h [1, 8]: 400 ng/mL | concentration at 8 h [1, 8]: 300 ng/mL | concentration at 24 h [1, 8]: 200 ng/mL | MIC on Mycelium Formation, A. fumigatus (Aspergillus fumigatus): 3.13 µg/mL (≈ 7.04 µM) | MIC on Mycelium Formation, C. albicans (Candida albicans): 0.05 µg/mL (≈ 0.112 µM) | Mean Survival Days ([2]; G2-β-CyD inclusion complex): > 10 days | Mean Survival Days ([2]; in 0.5% MC (ITZ: in PEG 400)): 5.9 days | Survival Number on Day 1 ([2]; G2-β-CyD inclusion complex): 9 | Survival Number on Day 2 ([2]; G2-β-CyD inclusion complex): 9 | Survival Number on Day 3 ([2]; G2-β-CyD inclusion complex): 9 | Survival Number on Day 4 ([2]; G2-β-CyD inclusion complex): 9 | Survival Number on Day 5 ([2]; G2-β-CyD inclusion complex): 9 | Survival Number on Day 6 ([2]; G2-β-CyD inclusion complex): 9 | Survival Number on Day 7 ([2]; G2-β-CyD inclusion complex): 9 | Survival Number on Day 8 ([2]; G2-β-CyD inclusion complex): 9 | Survival Number on Day 9 ([2]; G2-β-CyD inclusion complex): 9 | Survival Number on Day 10 ([2]; G2-β-CyD inclusion complex): 9 | Survival Number on Day 5 ([2]; in 0.5% MC): 5 | Survival Number on Day 6 ([2]; in 0.5% MC): 4 | Survival Number on Day 7 ([2]; in 0.5% MC): 4 | Survival Number on Day 8 ([2]; in 0.5% MC): 2 | Survival Number on Day 9 ([2]; in 0.5% MC): 2 | Survival Number on Day 10 ([2]; in 0.5% MC): 2 | Survival Number on Day 1 ([2]; in 0.5% MC (ITZ: in PEG 400)): 9 | Survival Number on Day 2 ([2]; in 0.5% MC (ITZ: in PEG 400)): 9 | Survival Number on Day 3 ([2]; in 0.5% MC (ITZ: in PEG 400)): 9 | Survival Number on Day 4 ([2]; in 0.5% MC (ITZ: in PEG 400)): 5 | Mean Survival Days [3]: > 10.0 days | Survival Number on Day 1 [3]: 9 | Survival Number on Day 2 [3]: 9 | Survival Number on Day 3 [3]: 9 | Survival Number on Day 4 [3]: 9 | Survival Number on Day 5 [3]: 9 | Survival Number on Day 6 [3]: 9 | Survival Number on Day 7 [3]: 9 | Survival Number on Day 8 [3]: 9 | Survival Number on Day 9 [3]: 9 | Survival Number on Day 10 [3]: 9 | Mean Survival Days [4]: > 9.0 days | Survival Number on Day 1 ([4]; of 9 mice): 9 | Survival Number on Day 2 ([4]; of 9 mice): 9 | Survival Number on Day 3 ([4]; of 9 mice): 9 | Survival Number on Day 4 ([4]; of 9 mice, G2-β-CyD complex): 9 | Survival Number on Day 5 ([4]; of 9 mice, G2-β-CyD complex): 8 | Survival Number on Day 6 ([4]; of 9 mice, G2-β-CyD complex): 8 | Survival Number on Day 7 ([4]; of 9 mice, G2-β-CyD complex): 8 | Survival Number on Day 8 ([4]; of 9 mice, G2-β-CyD complex): 7 | Survival Number on Day 9 ([4]; of 9 mice, G2-β-CyD complex): 7 | Survival Number on Day 10 ([4]; of 9 mice, G2-β-CyD complex): 7 | life or death, acute toxicity (Acute toxicity in mice): No case of death

CC(C)(Sc1ccc(-n2cncn2)nn1)C(O)(Cn1cncn1)c1ccc(F)cc1F (single isomer, unassigned; (-)) [Reference Example 12, (-)-2-(2,4-difluorophenyl)-3-methyl-1-(1H-1,2,4-triazol-1-yl)-3-(6-(1H-1,2,4-triazol-1-yl)-pyridazin-3-ylthio)butan-2-ol, reference compound]
MIC on Mycelium Formation, A. fumigatus (Aspergillus fumigatus): 100 µg/mL (≈ 225 µM) | MIC on Mycelium Formation, C. albicans (Candida albicans): 1.56 µg/mL (≈ 3.51 µM)

OC(Cn1cncn1)(Cn1cncn1)c1ccc(F)cc1F [FCZ, fluconazole, reference compound]
Mean Survival Days ([2]; in 0.5% MC (ITZ: in PEG 400)): 2.0 days | Survival Number on Day 1 ([2]; in 0.5% MC (ITZ: in PEG 400)): 9 | Survival Number on Day 2 ([2]; in 0.5% MC (ITZ: in PEG 400)): 9 | Survival Number on Day 3 ([2]; in 0.5% MC (ITZ: in PEG 400)): 0 | Mean Survival Days [3]: 6.3 days | Survival Number on Day 1 [3]: 9 | Survival Number on Day 2 [3]: 9 | Survival Number on Day 3 [3]: 8 | Survival Number on Day 4 [3]: 8 | Survival Number on Day 5 [3]: 8 | Survival Number on Day 6 [3]: 6 | Survival Number on Day 7 [3]: 3 | Survival Number on Day 8 [3]: 2 | Survival Number on Day 9 [3]: 2 | Survival Number on Day 10 [3]: 1 | Mean Survival Days [4]: 2.0 days | Survival Number on Day 1 ([4]; of 9 mice): 9 | Survival Number on Day 2 ([4]; of 9 mice): 9 | Survival Number on Day 3 ([4]; of 9 mice): 0 | manifestations of toxicity [5]: production of hepatomegaly and enlargement of the suprarenalcapsules, with the degree thereof depending on dosage

CCC(C)n1ncn(-c2ccc(N3CCN(c4ccc(OCC5COC(Cn6cncn6)(c6ccc(Cl)cc6Cl)O5)cc4)CC3)cc2)c1=O (stereo not drawn) [ITZ, itraconazole, reference compound]
Mean Survival Days ([2]; in 0.5% MC (ITZ: in PEG 400)): 2.1 days | Survival Number on Day 1 ([2]; in 0.5% MC (ITZ: in PEG 400)): 9 | Survival Number on Day 2 ([2]; in 0.5% MC (ITZ: in PEG 400)): 9 | Survival Number on Day 3 ([2]; in 0.5% MC (ITZ: in PEG 400)): 9 | Survival Number on Day 4 ([2]; in 0.5% MC (ITZ: in PEG 400)): 1

Cc1nnc(SC(C)C(O)(Cn2cncn2)c2ccc(F)cc2F)s1 (stereo not drawn) [compound (A), reference compound]
Mean Survival Days ([2]; in 0.5% MC (ITZ: in PEG 400)): 2.3 days | Survival Number on Day 1 ([2]; in 0.5% MC (ITZ: in PEG 400)): 9 | Survival Number on Day 2 ([2]; in 0.5% MC (ITZ: in PEG 400)): 9 | Survival Number on Day 3 ([2]; in 0.5% MC (ITZ: in PEG 400)): 3 | Survival Number on Day 4 ([2]; in 0.5% MC (ITZ: in PEG 400)): 0 | life or death, acute toxicity (Acute toxicity in mice): all of the mice died
